Earlier results in patent US20160081975A1, “SOFT GEL COMPOSITIONS AND PRE-GEL CONCENTRATES” (VIRUN, INC., priority 2014, published 2016).

Settings: reported value

Substance | HLB value
sucrose monopalmitate | > 10
sucrose dipalmitate | 7.4
sucrose distearate | 3
